Where two headings read alike, the source gives them in different places.
Legend:
TACE = target: T1, TACE (Homo sapiens, UniProt P78536); test: Inhibition of soluble TNF-α production (TACE whole blood assay); type: cell-based; conditions: Table 2, read-out: TACE (IC50 class)
T1 construct: Human mononuclear cells are isolated from anti-coagulated human blood; endogenous in cells; host or cells: human peripheral blood mononuclear cells, LPS stimulated
Protocol: Inhibition of Soluble TNF-α Production (TACE Whole Blood Assay)
This assay is used in the invention to measure the potency (IC50s) of compounds for TACE.
Human mononuclear cells are isolated from anti-coagulated human blood using a one-step Ficoll-hypaque separation technique. (2) The mononuclear cells are washed three times in Hanks balanced salt solution (HBSS) with divalent cations and re-suspended to a density of 2×10^6/ml in HBSS containing 1% BSA.
180 μL of the cell suspension was aliquoted into flat bottom 96 well plates (Costar). Additions of compounds and LPS (100 ng/ml final concentration) gives a final volume of 200 μL. All conditions are performed in triplicate. After about a four hour incubation at about 37° C. in an humidified CO2 incubator, plates are removed and centrifuged (about 10 minutes at approximately 250×g) and the supernatants removed and assayed for TNF-α using the R&D ELISA Kit.

aggrecanase = test: Aggrecanase chondrocyte assay (35S-proteoglycan release, IL-1 stimulated); type: cell-based, porcine
Protocol: Aggrecanase Chondrocyte Assay
This assay is used in the invention to measure the potency (IC50s) of compounds for aggrecanase.
Primary porcine chondrocytes from articular joint cartilage are isolated by sequential trypsin and collagenase digestion followed by collagenase digestion overnight and are plated at 2×10^5 cells per well into 48 well plates with 5 μCi/ml ^35S (1000 Ci/mmol) sulphur in type I collagen coated plates. Cells are allowed to incorporate label into their proteoglycan matrix (approximately 1 week) at 37° C., under an atmosphere of 5% CO2.
The night before initiating the assay, chondrocyte monolayers are washed two times in DMEM/1% PSF/G and then allowed to incubate in fresh DMEM/1% FBS overnight.
The following morning chondrocytes are washed once in DMEM/1% PSF/G. The final wash is allowed to sit on the plates in the incubator while making dilutions. Media and dilutions can be made as described in the Table I below.
Plates are labeled and only the interior 24 wells of the plate are used. On one of the plates, several columns are designated as IL-1 (no drug) and Control (no IL-1, no drug). These control columns are periodically counted to monitor 35S-proteoglycan release. Control and IL-1 media are added to wells (450 μl) followed by compound (50 μl) so as to initiate the assay. Plates are incubated at 37° C., with a 5% CO2 atmosphere.
At 40–50% release (when CPM from IL-1 media is 4–5 times control media) as assessed by liquid scintillation counting (LSC) of media samples, the assay is terminated (about 9 to about 12 hours). Media is removed from all wells and placed in scintillation tubes. Scintillate is added and radioactive counts are acquired (LSC). To solubilize cell layers, 500 μL of papain digestion buffer (0.2 M Tris, pH 7.0, 5 mM EDTA, 5 mM DTT, and 1 mg/ml papain) is added to each well. Plates with digestion solution are incubated at 60° C. overnight. The cell layer is removed from the plates the next day and placed in scintillation tubes. Scintillate is then added, and samples counted (LSC).
The percent of released counts from the total present in each well is determined. Averages of the triplicates are made with control background subtracted from each well.

[1] = target: T2, Human recombinant collagenase-1 (Homo sapiens, UniProt P03956); test: Inhibition of human collagenase-1 (recombinant collagenase-1 assay); type: biochemical; conditions: Table 2, read-out: MMP-1 (IC50 class)
T2 sequence (P03956 100-469): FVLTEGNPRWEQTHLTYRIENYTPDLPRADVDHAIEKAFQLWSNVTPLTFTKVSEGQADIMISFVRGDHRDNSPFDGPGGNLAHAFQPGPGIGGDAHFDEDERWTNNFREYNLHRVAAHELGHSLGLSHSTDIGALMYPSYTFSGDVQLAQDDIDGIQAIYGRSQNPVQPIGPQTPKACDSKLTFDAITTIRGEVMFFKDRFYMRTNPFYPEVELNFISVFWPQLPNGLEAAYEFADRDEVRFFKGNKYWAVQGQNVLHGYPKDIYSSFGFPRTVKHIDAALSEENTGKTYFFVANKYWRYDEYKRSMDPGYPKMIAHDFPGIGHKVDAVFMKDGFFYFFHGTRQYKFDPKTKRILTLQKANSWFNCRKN
Protocol: Inhibition of Human Collagenase-1 (Recombinant Collagenase-1 Assay)
This assay is used in the invention to measure the potency (IC50s) of compounds for collagenase-1.
Human recombinant collagenase-1 is activated with trypsin. The amount of trypsin is optimized for each lot of collagenase-1, but a typical reaction uses the following ratio: 5 mg trypsin per 100 mg of collagenase.
Stock solutions (10 mM) of inhibitors are made up in dimethylsulfoxide and then diluted using the following scheme: • 10 mM------>120 μM------>12 μM------>1.2 μM------>0.12 μM
Twenty-five microliters of each concentration is then added in triplicate to appropriate wells of a 96 well microfluor plate. The final concentration of inhibitor will be a 1:4 dilution after addition of enzyme and substrate. Positive controls (enzyme, no inhibitor) are set up in wells D7–D12 and negative controls (no enzyme, no inhibitors) are set in wells D1–D6.
Collagenase-1 is diluted to 240 ng/ml and […] is then added to appropriate wells of the microfluor plate. Final concentration of collagenase in the assay is 60 ng/ml.
Substrate (DNP-Pro-Cha-Gly-Cys(Me)-His-Ala-Lys(NMA)-NH2) is made as a 5 mM stock in dimethylsulfoxide and then diluted to 20 μM in assay buffer. The assay is initiated by the addition of […] substrate per well of the microfluor plate to give a final concentration of 10 μM.
Fluorescence readings (360 nm excitation, 460 nm emission) are taken at time 0 and then at about 20 minute intervals. The assay is conducted at a temperature of about 20 to about 25° C., preferably about 23° C. with a typical assay time of about 3 hours.
Fluorescence versus time is then plotted for both the blank and collagenase containing samples (data from triplicate determinations is averaged). A time point that provides a good signal (at least five fold over the blank) and that is on a linear part of the curve (usually around 120 minutes) is chosen to determine IC50 values. The zero time is used as a blank for each compound at each concentration and these values are subtracted from the 120 minute data. Data is plotted as inhibitor concentration versus % control (inhibitor fluorescence divided by fluorescence of collagenase alone ×100).

[2] = target: Human recombinant collagenase-3 (Homo sapiens, UniProt P45452); test: Inhibition of human collagenase-3 (recombinant collagenase-3 assay); type: biochemical
Protocol: Inhibition of Human Collagenase-3 (Recombinant Collagenase-3 Assay)
This assay is used in the invention to measure the potency (IC50s) of compounds for collagenase-3.
Human recombinant collagenase-3 is activated with 2 mM APMA (p-aminophenyl mercuric acetate) for about 2.0 hours, at about 37° C. and is diluted to about 240 ng/ml in assay buffer (50 mM Tris, pH 7.5, 200 mM sodium chloride, 5 mM calcium chloride, […], 0.02% BRIJ-35). Twenty-five micro-liters of diluted enzyme is added per well of a 96 well microfluor plate.
The final concentrations in the assay are 30 μM, 3 μM, 0.3 μM, and 0.03 μM.
Fluorescence readings (360 nm excitation; 450 nm emission) are taken at time 0 and about every 5 minutes for about 1 hour.
Positive controls and negative controls are set up in triplicate as outlined in the collagenase-1 assay. IC50's are determined as per inhibition of human collagenase (collagenase-1).

[3] = Table 2, aggrecanase chondrocyte assay, read-out: Agg (aggrecanase IC50 class)
[4] = Table 2, recombinant collagenase-3 assay, read-out: MMP-13 (IC50 class)

T1 sequence (P78536 215-824): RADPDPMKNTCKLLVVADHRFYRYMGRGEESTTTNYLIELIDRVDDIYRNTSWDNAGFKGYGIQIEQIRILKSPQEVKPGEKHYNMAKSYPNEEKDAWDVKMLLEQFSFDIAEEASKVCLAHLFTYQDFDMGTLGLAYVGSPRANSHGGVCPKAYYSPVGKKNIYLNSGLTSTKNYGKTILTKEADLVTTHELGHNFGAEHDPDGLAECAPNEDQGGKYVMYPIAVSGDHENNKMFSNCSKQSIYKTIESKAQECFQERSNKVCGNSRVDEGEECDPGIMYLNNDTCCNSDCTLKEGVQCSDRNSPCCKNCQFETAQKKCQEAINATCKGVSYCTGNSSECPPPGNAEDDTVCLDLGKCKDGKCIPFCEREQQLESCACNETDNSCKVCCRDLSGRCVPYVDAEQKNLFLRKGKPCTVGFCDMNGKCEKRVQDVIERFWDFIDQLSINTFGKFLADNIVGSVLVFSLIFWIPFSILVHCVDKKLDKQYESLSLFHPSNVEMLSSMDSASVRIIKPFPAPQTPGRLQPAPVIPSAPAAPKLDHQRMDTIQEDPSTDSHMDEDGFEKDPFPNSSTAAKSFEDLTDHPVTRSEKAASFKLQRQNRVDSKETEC

SMILES | IC50 (TACE) [nM] | IC50 (aggrecanase; [3]) [nM] | IC50 [1] [nM] | IC50 [2, 4] [nM] | IC50 ([2]; human recombinant enzyme, fluorogenic peptide substrate, read-out: Collagenase-3 IC50) [nM] | IC50 (aggrecanase; primary porcine chondrocytes, IL-1 (5 ng/ml), read-out: Aggrecanase IC50) [nM]
Cc1ccccc1COc1ccc(S(=O)(=O)N2CCC[C@](C)(O)[C@@H]2C(=O)NO)cc1 [(2R,3S) 1-[4-(2-methyl-benzyloxy)-benzenesulfonyl]-3-hydroxy-3-methyl-piperidine-2-carboxylic acidhydroxyamide] | < 10000 | 10 to 20 | 200 to 1000 | < 10 |  | 
Cc1c(F)cccc1COc1ccc(S(=O)(=O)N2C[C@H](O)CC(C)(C)[C@@H]2C(=O)NO)cc1 [(2R,5R) 1-[4-(2-methyl-3-fluoro-benzyloxy)-benzenesulfonyl]-5-hydroxy-3,3-dimethyl-piperidine-2-carboxylic acidhydroxyamide] | < 10000 | < 10 | 200 to 1000 | < 10 |  | 
CNC(=O)N1CCN(S(=O)(=O)c2ccc(OCc3cc(F)ccc3C)cc2)[C@@H](C(=O)NO)[C@@H]1C | < 10000 | < 10 | > 1000 | < 10 |  | 
C[C@@]1(O)CCCN(S(=O)(=O)c2ccc(OCc3ccc(Cl)cc3Cl)cc2)[C@H]1C(=O)NO [(2R,3R) 1-[4-(2,4-dichloro-benzyloxy)-benzenesulfonyl]-3-hydroxy-3-methyl-piperidine-2-carboxylic acidhydroxyamide] | 10000 to 20000 | < 10 | 200 to 1000 | < 10 |  | 
Cc1ccc(F)cc1COc1ccc(S(=O)(=O)N2CCC[C@@](C)(O)[C@@H]2C(=O)NO)cc1 [(2R,3R) 1-[4-(2-methyl-5-fluorobenzyloxy)-benzenesulfonyl]-3-hydroxy-3-methyl-piperidine-2-carboxylic acidhydroxyamide] | < 10000 | 10 to 20 |  | < 10 |  | 
Cc1cc(F)ccc1COc1ccc(S(=O)(=O)N2CC(=O)N[C@@H](C)[C@@H]2C(=O)NO)cc1 [(2R,3S) 1-[4-(4-fluoro-2-methyl-benzyloxy)-benzenesulfonyl]-3-methyl-5-oxo-piperazine-2-carboxylic acidhydroxyamide] | < 10000 | < 10 | > 1000 | 10 to 20 |  | 
CNC(=O)N1CCN(S(=O)(=O)c2ccc(OCc3ccc(F)cc3F)cc2)[C@@H](C(=O)NO)[C@@H]1C [(2R,3S) 4-[4-(2,4-difluoro-benzyloxy)-benzenesulfonyl]-3-methyl-4-carboxylic acidmethylamide-piperazine-2-carboxylic acidhydroxyamide] | 10000 to 20000 | 10 to 20 | 200 to 1000 | < 10 |  | 
CC1(C)C[C@@H](O)CN(S(=O)(=O)c2ccc(OCc3ccc(F)cc3)cc2)[C@H]1C(=O)NO [(2R,5R) 1-[4-(4-fluoro-benzyloxy)-benzenesulfonyl]-5-hydroxy-3,3-dimethyl-piperidine-2-carboxylic acidhydroxyamide] | 10000 to 20000 | < 10 | 20 to 200 | < 10 |  | 
CNC(=O)[C@H](Cc1ccc(OC)cc1)NC(=O)[C@@H](CC(=O)NO)CC(C)C [reference compound] |  |  |  |  | 1 | 
Cc1c(F)cccc1COc1ccc(S(=O)(=O)N2CCC[C@@](C)(O)[C@@H]2C(=O)NO)cc1 [(2R,3R) 1-[4-(2-methyl-3-fluorobenzyloxy)-benzenesulfonyl]-3-hydroxy-3-methyl-piperidine-2-carboxylic acidhydroxyamide] | < 10000 | 10 to 20 | > 1000 | < 10 |  | 
CC1(C)C[C@@H](O)CN(S(=O)(=O)c2ccc(OCc3ccc(Cl)cc3Cl)cc2)[C@H]1C(=O)NO [(2R,5R) 1-[4-(2,4-dichloro-benzyloxy)-benzenesulfonyl]-5-hydroxy-3,3-dimethyl-piperidine-2-carboxylic acidhydroxyamide] | 20000 to 40000 | < 10 | 200 to 1000 | < 10 |  | 
C[C@@]1(O)CCCN(S(=O)(=O)c2ccc(OCc3ccccc3F)cc2)[C@H]1C(=O)NO [(2R,3R) 1-[4-(2-fluoro-benzyloxy)-benzenesulfonyl]-3-hydroxy-3-methyl-piperidine-2-carboxylic acidhydroxyamide] | 20000 to 40000 | 10 to 20 | 20 to 200 |  |  | 
Cc1cc(F)ccc1COc1ccc(S(=O)(=O)N2CCC[C@@](C)(O)[C@@H]2C(=O)NO)cc1 [(2R,3R) 1-[4-(4-fluoro-2-methyl-benzyloxy)-benzenesulfonyl]-3-hydroxy-3-methyl-piperidine-2-carboxylic acidhydroxyamide] | < 10000 | < 10 |  | < 10 |  | 
NS(=O)(=O)c1ccc(CCNC(=O)C(CC2CCCCC2)NC(=O)C(CCCc2ccccc2)CC(=O)NO)cc1 (centres unmarked) [reference compound] |  |  |  |  |  | 53.5
C[C@@]1(O)CCCN(S(=O)(=O)c2ccc(OCc3ccccc3Cl)cc2)[C@H]1C(=O)NO [(2R,3R) 1-[4-(2-chloro-benzyloxy)-benzenesulfonyl]-3-hydroxy-3-methyl-piperidine-2-carboxylic acidhydroxyamide] | < 10000 | < 10 |  | < 10 |  | 

Source: patent US7030242B2, “Selective inhibition of aggrecanase in osteoarthritis treatment” (Pfizer Inc, priority 1999, dated 2006)
